In patent US7452865B2, “Antagonistic analogs of GH RH (2003)” (The Administrare's of the Tulane Educational Fund, priority 2004, dated 2008):
Marks after values point to notes of the source that are not given here. Square brackets hold non-standard residues; d marks the D form. Peptide text beside a SMILES is read from it. * marks the point of attachment. Phe(4-amidino) = N=C(N)c1ccc(C[C@H](N)C(=O)O)cc1; Phe(4-Cl) = N[C@@H](Cc1ccc(Cl)cc1)C(=O)O; hArg = N=C(N)NCCCC[C@H](N)C(=O)O; Nle = CCCC[C@H](N)C(=O)O; Abu = CC[C@H](N)C(=O)O; PhAc = O=C(Cc1ccccc1)*

Legend:
[1] = system: IGF-I; assay: PC-3 xenografts, Experiment 2: serum IGF-I (RIA); assay type: in vivo, nude mice; conditions: 10 μg/day s.c., 28 days
[2] = system: IGF-I; assay: PC-3 xenografts, Experiment 1: serum IGF-I (RIA); assay type: in vivo, nude mice; conditions: 10 μg/day s.c., 28 days; for Serum IGF-I (% inhibition): vs control
Source text: (§1) For the measurement of GH and IGF-I levels in the serum, as well as IGF-I and IGF-II concentrations in the cytosol fraction of tumors, blood samples and tumor samples were collected and processed as described (Braczkowski R, Schally A V, Plonowski A, Varga J L, Groot K, Krupa M, Armatis P, Cancer 95: 1735-1745, 2002), hereby incorporated by reference. Briefly, blood samples are centrifuged to separate the serum, tumors are homogenized and centrifuged to separate the cytosol fraction. Serum GH is then measured by the double-antibody RIA method. Before measurement by RIA, IGF-I and IGF-II are extracted from serum and cytosol fractions using an acid-ethanol cryoprecipitation method that eliminates most of the IGF binding proteins, which can interfere with the RIA. IGF-I concentration is measured by RIA using IGF-I as a standard and goat anti-IGF-I antibody (both from DSL Inc., Webster, Tex.). IGF-II concentration is measured by RIA using human recombinant IGF-II (Bachem) as a standard and anti-IGF-II monoclonal antibody (Amano International Enzyme, Troy, Va.).
(§2) Male nude mice were implanted s.c. with 3 mm^3 pieces of PC-3 human hormone-independent prostate cancer tissue on both flanks. When tumors reached a volume of approx. 50 mm^3, the mice were divided into 5 experimental groups with 7 to 8 animals in each group and received single daily injections for 28 days as follows: 1. Control (vehicle solution); 2. JV-1-38 (10 μg/day s.c.); 3 Peptide 31 (10 μg/day s.c.); 4. Peptide 67 (10 μg/day s.c.); 5. Peptide 62 (10 μg/day s.c.). Tumor volumes were measured twice a week. The experiment was ended on day 29 by sacrificing the mice under Isoflurane anesthesia. Resulting tumors were cleaned, weighed, and snap-frozen until further analyses. Trunk blood was collected from the abdominal aorta and serum was separated for RIA measurement of IGF-I. Statistical analyses of the measurement results were done by two-tailed t-test; data are presented as the means±S.E.

[3] = system: PC-3 human prostate cancer xenografts; assay: PC-3 xenografts in nude mice, Experiment 2: tumor growth; assay type: in vivo
[4] = system: PC-3 human prostate cancer xenografts; assay: PC-3 xenografts in nude mice, Experiment 3: tumor growth; assay type: in vivo
Procedure, shortened: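 Male nude mice bearing s.c. PC-3 tumour fragments on both flanks (~65 mm^3 at start), 8–9 per group, given daily s.c. injections at 10 μg/day for 28 days vs vehicle. Tumour volume measured twice weekly; at day 28 tumours weighed and serum IGF-I measured by RIA; ANOVA with Fisher test, means±S.E.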

[5] = system: IGF-II; assay: PC-3 xenografts, Experiment 1: tumor IGF-II (RIA); assay type: in vivo, nude mice; conditions: 10 μg/day s.c., 28 days; for Tumor IGF-II (% inhibition): vs control
Source text: as §1, §2

[6] = system: PC-3 human prostate cancer xenografts; assay: PC-3 xenografts in nude mice, Experiment 1: tumor growth; assay type: in vivo; conditions: for Tumor volume (mm^3) Final / Tumor volume doubling time / Tumor weight / Tumor volume Final (% inhibition) / Tumor weight (% inhibition): 10 μg/day s.c., 28 days; for Tumor volume Final (% inhibition) / Tumor weight (% inhibition): vs control; for Tumor volume (mm^3) Initial: at start of treatment
Method: as §2

[7] = system: hGH-RH(1-29)NH2 induced GH release; assay: Inhibition of GH release in superfused rat pituitary system; assay type: cell-based
Procedure, shortened: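 GH output was quantified by double-antibody RIA in superfusates of rat pituitary cells. Peptides were applied for 9 min at various concentrations before a 3-min 1 nM hGH-RH(1-29)NH2 pulse, with further pulses 30–120 min later; net integral responses given as percent of the original response.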

[8] = system: pituitary; conditions: cited from earlier work
[9] = system: DMS-153 human SCLC xenografts; assay: DMS-153 human SCLC xenografts in nude mice: tumor growth; assay type: in vivo
Method: (§3) Male nude mice were implanted s.c. with 3 mm^3 pieces of DMS-153 human SCLC tissue. When tumors reached a volume of approx. 100 mm^3 the mice were divided into 3 experimental groups of 68 animals each and received the following treatment for 6 weeks group 1 (control), vehicle solution; group 2, Peptide 67 (10 μg/day s.c.); group 3, Peptide 31 (10 μg/day s.c.). Tumor volumes were recorded twice a week. At the end of treatment, mice were anesthetized with isoflurane, killed by decapitation, trunk blood was collected for measurement of serum IGF-I, and tumors were excised and weighed. Data are presented as means±S.E. Data were evaluated by one way ANOVA and the Student-Newman-Keuls test.

[10] = system: H-69 human SCLC xenografts; assay: H-69 human SCLC xenografts in nude mice: tumor growth; assay type: in vivo; conditions: H-69
Method: Male nude mice were implanted s.c. with 3 mm^3 pieces of H-69 human SCLC tissue. When tumors reached a volume of approx. 80 mm^3 the mice were divided into 4 experimental groups of 7-8 animals each and received the following treatment for 4 weeks: group I (control), vehicle solution; group 2, Peptide 67 (10 μg/day s.c.); group 3, Peptide 31 (10 μg/day s.c.); group 4, Peptide 72 (10 μg/day s.c.). Tumor volumes were recorded twice a week. At the end of treatment, mice were anesthetized with isoflurane, killed by decapitation, and tumors were excised and weighed. Data are presented as means±S.E. Data were evaluated by one way ANOVA and the Student-Newman-Keuls test.

[11] = system: IGF-I; assay: DMS-153 human SCLC xenografts: serum IGF-I; assay type: in vivo, nude mice; conditions: 10 μg/day s.c., 6 weeks
Source text: as §1, §3

[12] = system: mRNA for IGF-II; assay: DMS-153 human SCLC xenografts: expression of mRNA for IGF-II; assay type: in vivo, nude mice; conditions: 10 μg/day s.c., 6 weeks, control group 100±1.5%
Method: as §3

[13] = 10 μg/day s.c., 28 days, vs control
[14] = antagonist 30 nM, 1 nM hGH-RH(1-29)NH2 at 0 min
[15] = antagonist 30 nM, 1 nM hGH-RH(1-29)NH2 at 30 min
[16] = antagonist 30 nM, 1 nM hGH-RH(1-29)NH2 at 60 min
[17] = antagonist 30 nM, 1 nM hGH-RH(1-29)NH2 at 90 min
[18] = antagonist 30 nM, 1 nM hGH-RH(1-29)NH2 at 120 min
[19] = 10 μg/day s.c., 6 weeks, vs control

Compound	Serum IGF-I [2]	Serum IGF-I (% inhibition) [2]	Tumor IGF-II (pg/mg protein) [5]	Tumor IGF-II (% inhibition) [5]	Tumor volume (mm^3) Final [6]	Tumor volume doubling time [6]	Tumor weight [6]	Tumor volume Final (% inhibition) [6]	Tumor weight (% inhibition) [6]	Tumor volume (mm^3) Initial [6]	GH response (% of control) 0 min [7, 14]	GH response (% of control) 30 min [7, 15]	GH response (% of control) 60 min [7, 16]	GH response (% of control) 90 min [7, 17]	GH response (% of control) 120 min [7, 18]	also measured
CCCC[C@H](NC(=O)[C@@H](NC(=O)[C@H](CC(=O)O)NC(=O)[C@H](CCC(N)=O)NC(=O)[C@H](CC(C)C)NC(=O)[C@H](CC(C)C)NC(=O)[C@H](CCCCN)NC(=O)[C@H](CCCNC(=N)N)NC(=O)[C@H](C)NC(=O)[C@H](CO)NC(=O)[C@H](CC(C)C)NC(=O)[C@H](CCC(N)=O)NC(=O)[C@H](CC)NC(=O)[C@H](CC(C)C)NC(=O)[C@@H](NC(=O)[C@H](CCCCN)NC(=O)[C@H](CCCNC(=N)N)NC(=O)[C@H](Cc1ccc(OC)cc1)NC(=O)[C@H](CCCCNC(=N)N)NC(=O)[C@H](CC(N)=O)NC(=O)[C@@H](NC(=O)[C@H](Cc1ccc(Cl)cc1)NC(=O)[C@@H](NC(=O)[C@H](C)NC(=O)[C@H](CC(=O)O)NC(=O)[C@@H](CCCNC(=N)N)NC(=O)[C@H](Cc1ccc(O)cc1)NC(=O)Cc1ccccc1)[C@@H](C)CC)[C@@H](C)O)C(C)C)[C@@H](C)CC)C(=O)N[C@H](CCCNC(=N)N)C(=O)N[C@@H](CCCCNC(=N)N)C(N)=O [JV-1-38, reference compound] (PhAc-Y[dR]DAI[Phe(4-Cl)]TN[hArg]Y(Me)RKVL[Abu]QLSARKLLQDI[Nle][dR][hArg]-NH2; N-terminus and C-terminus assumed)	147 ± 8.49 ng/mL	(1%)	208 ± 43.3 pg/mg protein	(5%)	291 ± 80.4 mm^3	12.3 ± 1.04 days	239 ± 58.0 mg	(42%)	(37%)	49.2 ± 8.37 mm^3	59 % of control	32 % of control	28 % of control	34 % of control	31 % of control	Serum IGF-I [1]: 293 ± 28.0 ng/mL; Tumor volume (mm^3) Initial ([3]; 10 μg/day group, at start of treatment): 29.3 ± 3.8 mm^3; Tumor volume (mm^3) Final ([3]; 10 μg/day s.c., 28 days): 351 ± 72.9 mm^3; Tumor volume doubling time ([3]; 10 μg/day s.c., 28 days): 8.7 ± 0.7 days; Tumor weight ([3]; 10 μg/day s.c., 28 days): 254 ± 52.0 mg; Tumor volume Final (% inhibition) [3, 13]: (0%); Tumor volume (mm^3) Final ([4]; 10 μg/day s.c., 28 days): 276 ± 48.7** mm^3; Tumor volume doubling time ([4]; 10 μg/day s.c., 28 days): 18.2 ± 1.84 days; Tumor weight ([4]; 10 μg/day s.c., 28 days): 386 ± 62.9 mg; Tumor volume Final (% inhibition) [4, 13]: (66%); Tumor weight (% inhibition) [4, 13]: (45%); Tumor volume (mm^3) Initial ([4]; at start of treatment): 68.3 ± 8.08 mm^3
Tyr-Ala-Asp-Ala-Ile^5-Phe-Thr-Asn-Ser-Tyr^10-Arg-Lys-Val-Leu-Gly^15-Gln-Leu-Ser-Ala-Arg^20-Lys-Leu-Leu-Gln-Asp^25-Ile-Met-Ser-Arg^29-NH2 [GH-RH(1-29)]	–	–	–	–	–	–	–	–	–	–	–	–	–	–	–	potency retained relative to native GH-RH [8]: ≥ 50%
CCCC[C@H](NC(=O)[C@@H](NC(=O)[C@H](CC(=O)O)NC(=O)[C@H](CCC(N)=O)NC(=O)[C@H](CC(C)C)NC(=O)[C@H](CC(C)C)NC(=O)[C@H](CCCCN)NC(=O)[C@H](CCCNC(=N)N)NC(=O)[C@H](C)NC(=O)[C@H](CO)NC(=O)[C@H](CC(C)C)NC(=O)[C@H](CCC(N)=O)NC(=O)[C@H](CC)NC(=O)[C@H](CC(C)C)NC(=O)[C@@H](NC(=O)[C@H](CCCCN)NC(=O)[C@H](CCCNC(=N)N)NC(=O)[C@H](Cc1ccc(C(=N)N)cc1)NC(=O)[C@H](CCCCNC(=N)N)NC(=O)[C@H](CC(N)=O)NC(=O)[C@@H](NC(=O)[C@H](Cc1ccc(Cl)cc1)NC(=O)[C@@H](NC(=O)[C@H](C)NC(=O)[C@H](CC(=O)O)NC(=O)[C@@H](CCCNC(=N)N)NC(=O)[C@H](Cc1ccc(O)cc1)NC(=O)Cc1ccccc1)[C@@H](C)CC)[C@@H](C)O)C(C)C)[C@@H](C)CC)C(=O)N[C@H](CCCNC(=N)N)C(=O)N[C@@H](CCCCNC(=N)N)C(N)=O [Peptide 31, [PhAc-Tyr^1, D-Arg^2, Phe(pCl)^6, Har^9, Amp^10, Abu^15, Nle^27, D-Arg^28, Har^29]hGH-RH(1-29)NH2] (PhAc-Y[dR]DAI[Phe(4-Cl)]TN[hArg][Phe(4-amidino)]RKVL[Abu]QLSARKLLQDI[Nle][dR][hArg]-NH2)	133 ± 16.7 ng/mL	(11%)	130 ± 56.0 pg/mg protein	(41%)	363 ± 92.8 mm^3	14.0 ± 2.69 days	237 ± 53.3 mg	(28%)	(37%)	49.1 ± 12.5 mm^3	7 % of control	1 % of control	2 % of control	4 % of control	3 % of control	Tumor volume (mm^3) Final ([9]; 10 μg/day s.c., 6 weeks): 3329 ± 180 mm^3; Tumor weight ([9]; 10 μg/day s.c., 6 weeks): 1.58 ± 0.11 g; Tumor volume Final (% inhibition) [9, 19]: (10%); Tumor weight (% inhibition) [9, 19]: (32%); Tumor volume (mm^3) Initial ([9]; at start of treatment): 138 ± 20 mm^3; Tumor volume (mm^3) Final ([10]; 10 μg/day s.c., 4 weeks): 832 ± 23* mm^3; Tumor volume Final (% inhibition) ([10]; 10 μg/day s.c., 4 weeks, vs control): (67%); Tumor volume (mm^3) Initial ([10]; at start of treatment): 80 ± 6 mm^3; Serum IGF-I [11]: 118.4 ± 12.5 ng/mL; Serum IGF-I (% inhibition) ([11]; vs control): (30%); level of expression of mRNA for IGF-II [12]: 42.7±18.5%; GH response (% of control) 0 min ([7]; antagonist 10 nM, 0 min): 57 % of control; GH response (% of control) 30 min ([7]; antagonist 10 nM, 30 min): 31 % of control; GH response (% of control) 60 min ([7]; antagonist 10 nM, 60 min): 37 % of control; GH response (% of control) 90 min ([7]; antagonist 10 nM, 90 min): 36 % of control; GH response (% of control) 120 min ([7]; antagonist 10 nM, 120 min): 37 % of control; endocrine antagonistic potency: inhibition of the GH release stimulated by hGH-RH(1-29)NH2 (in words) ([7]; general statement, in vitro and in vivo): high endocrine antagonistic potencies
